Laboratory results: US5114934A, “Tricyclic pyridone derivatives” (Hoffman-La Roche, Inc., priority 1985, dated 1992)

Assays:
[1] = tested on: spasmodic seizures caused by pentetrazole; assay: antipentetrazole test (mice, oral); assay type: in vivo; details: Mus musculus, 0.5 h, 30 minutes before 120 mg/kg pentetrazole i.p., dosage protecting 50% of animals, Probit method
Method: As mentioned earlier, the compounds of formula I have valuable pharmacological properties. In particular they display pronounced muscle relaxant, sedative-hypnotic, anticonvulsive and/or anxiolytic properties and have only a low toxicity.
(§1) In this animal experiment the compound under investigation is administered orally to mice and 30 minutes later there are administered intraperitoneally 120 mg/kg of pentetrazole, which causes emprosthotonus and tonic stretchings of the fore and/or hind limbs in unprotected animals 1-4 minutes after the injection. 10 experimental animals are used per dosage of test substance. After counting the protected experimental animals the ED50 is determined according to the Probit method. The ED50 is that dosage which protects 50% of the experimental animals from the spasmodic seizures caused by pentetrazole. The results which have been obtained with representative members of the class of compound defined by formula I in the experiment described previously are compiled in the following Table. Moreover, the Table contains data concerning the acute toxicity (LD50) of some of these compounds in mg/kg in the case of single oral administration to mice.

[2] = acute toxicity (LD50), single oral administration to mice; details: mouse, in vivo
Method: as §1

SMILES | ED50 [1] [mg/kg] | LD50 [2] [mg/kg]
COC1CN(C(=O)c2cc(-c3ccccc3)c(=O)n3ncc4ccccc4c23)C1 [Compound A, 3-methoxy-1-[(4-oxo-3-phenyl-4H-pyrido-[2,1-a]phthalazin-1-yl)carbonyl]azetidine] | 1.1 | 1500
COC1CN(C(=O)c2cc(-c3ccccc3)c(=O)n3ncc4ccc(Cl)cc4c23)C1 [Compound F, 1-[(10-Chloro-4-oxo-3-phenyl-4H-pyrido[2,1-a]-phthalazin-1-yl)carbonyl]-3-methoxyazetidine] | 0.79 | 5000
CN(C)C(=O)c1cc(-c2ccccc2)c(=O)n2ncc3ccc(Cl)cc3c12 [Compound G, N,N-Dimethyl-10-chloro-4-oxo-3-phenyl-4H-pyrido[2,1-a]phthalazine-1-carboxamide] | 0.08 | 5000
CCN(CC)C(=O)c1cc(-c2ccccc2)c(=O)n2ncc3ccc(Cl)cc3c12 [Compound H, N,N-Diethyl-10-chloro-4-oxo-3-phenyl-4H-pyrido[2,1-a]phthalazine-1-carboxamide] | 0.66 | > 4000
COC1CN(C(=O)c2cc(-c3ccccc3)c(=O)n3ncc4ccsc4c23)C1 [Compound M, 3-Methoxy-1-[(7-oxo-8-phenyl-7H-pyrido-[1,2-b]thieno[2,3-d]pyridazin-10-yl)carbonyl]-azetidine] | 0.83 | 5000
